Paper PMC11217419, “TRP14 is the rate-limiting enzyme for intracellular cystine reduction and regulates proteome cysteinylation” (The EMBO Journal, 2024)

Biological target: T1, TXDC-17 (C. elegans TRP14) (Caenorhabditis elegans, UniProt Q9BL27)
T1 construct: recombinant, purified with the same methodologies as the human orthologue
T1 sequence (Q9BL27 1-132): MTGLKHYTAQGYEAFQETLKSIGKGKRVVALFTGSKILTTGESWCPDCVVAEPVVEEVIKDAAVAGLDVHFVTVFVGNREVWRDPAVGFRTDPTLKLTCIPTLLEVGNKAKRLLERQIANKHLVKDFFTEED
Assay: coupled cystine reduction assay with C. elegans TRXR-1
Assay type: biochemical
Settings: with C. elegans TRXR-1 as reductase

## N[C@@H](CSSC[C@H](N)C(=O)O)C(=O)O [cystine]
  coupled cystine reduction assay with C. elegans TRXR-1: TXDC-17, together with its native reductase, could efficiently reduce cystine in vitro
